Patent publication US9637453B2, “3-spirocyclic-6-hydroxamic acid tetralins as HDAC inhibitors” (Forma Therapeutics, Inc., priority 2015, dated 2017)
pIC50: −log10 of the molar value.

Tests used:
[1] = molecular target: T1, Full length human recombinant HDAC11 (Homo sapiens, UniProt Q96DB2); assay: In vitro histone deacetylase assay, enzymatic HDAC11 (electrophoretic mobility shift assay); type: biochemical; conditions: 10 nM HDAC11; 2 μM peptide substrate FAM-RHKK(tri-fluor-Ac)—NH2; 25° C.; 12 concentrations; read-out: HDAC11 Activity Range (IC50)
T1 construct: Full length human recombinant HDAC6 and HDAC11 proteins were expressed in baculoviral system
T1 sequence (Q96DB2 1-347): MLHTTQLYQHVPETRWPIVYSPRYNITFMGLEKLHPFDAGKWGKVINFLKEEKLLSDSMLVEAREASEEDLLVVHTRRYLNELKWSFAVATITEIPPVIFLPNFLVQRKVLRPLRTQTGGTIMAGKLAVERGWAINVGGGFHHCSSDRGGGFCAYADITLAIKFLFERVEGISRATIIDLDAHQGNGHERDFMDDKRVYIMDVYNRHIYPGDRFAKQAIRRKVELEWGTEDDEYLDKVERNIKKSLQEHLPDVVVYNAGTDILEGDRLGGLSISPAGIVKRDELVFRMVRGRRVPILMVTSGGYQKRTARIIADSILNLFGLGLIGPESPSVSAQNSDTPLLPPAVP
Protocol: (§1) The enzymatic HDAC6 and HDAC11 assays were performed using electrophoretic mobility shift assay. Full length human recombinant HDAC6 and HDAC11 proteins were expressed in baculoviral system and purified by affinity chromatography. The enzymatic reactions were assembled in 384 well plates in a total volume of 25 μL in a reaction buffer composing: 100 mM HEPES, pH 7.5, 25 mM KCl, 0.1% bovine serum albumin, 0.01% Triton X-100, 1% DMSO (from compounds) 2 μM of the fluorescently labeled peptide substrate and enzyme. The enzymes were added at a final concentration of 1 nM for HDAC6, and 10 nM for HDAC11. The peptide substrate FAM-RHKK(Ac)—NH2 was used for HDAC6, and FAM-RHKK(tri-fluor-Ac)—NH2 for HDAC11. The compounds were tested at 12 concentrations spaced by 3× dilution intervals. Negative control samples (0%-inhibition in the absence of inhibitor) and positive control samples (100%-inhibition) were assembled in replicates of four in each assay plate. The reactions were incubated at 25° C. and quenched by the addition of 45 μL of termination buffer (100 mM HEPES, pH 7.5, 0.01% Triton X-100, 0.05% SDS).
(§2) The terminated assay plates were analyzed on LabChip® 3000 microfluidic electrophoresis instrument (Perkin Elmer/Caliper Life Sciences). The fluorescence intensity of the electrophoretically separated de-acetylated product and substrate peptide was measured. Activity in each sample was determined as the product to sum ratio (PSR): P/(S+P), where P is the peak height of the product peptide and S is the peak height of the substrate peptide. Percent inhibition (Pinh) is determined using following equation:
(§3) Pinh=(PSR0%−PSRinh)/(PSR0%−PSR100%)*100, where PSRinh is the product sum ratio in the presence of inhibitor, PSR0% is the average product sum ration in the absence of inhibitor and PSR100% is the average product sum ratio in 100%-inhibition control samples. The IC50 values of inhibitors were determined by fitting the %-inhibition curves with 4 parameter dose-response model using XLfit 4 software.
(§4) As set forth in Table-26 and Table-27, below, IC5o values are defined as follows: IC50≦0.1 μM (+++); IC50>0.1 μM and ≦0.5 μM (++); IC50>0.5 μM (+).

[2] = molecular target: T2, Full length human recombinant HDAC6 (Homo sapiens, UniProt Q9UBN7); assay: In vitro histone deacetylase assay, enzymatic HDAC6 (electrophoretic mobility shift assay); type: biochemical; conditions: 1 nM HDAC6; 2 μM peptide substrate FAM-RHKK(Ac)—NH2; 25° C.; 12 concentrations; read-out: HDAC6 Activity Range (IC50)
T2 construct: Full length human recombinant HDAC6 and HDAC11 proteins were expressed in baculoviral system
T2 sequence (Q9UBN7 1-1215): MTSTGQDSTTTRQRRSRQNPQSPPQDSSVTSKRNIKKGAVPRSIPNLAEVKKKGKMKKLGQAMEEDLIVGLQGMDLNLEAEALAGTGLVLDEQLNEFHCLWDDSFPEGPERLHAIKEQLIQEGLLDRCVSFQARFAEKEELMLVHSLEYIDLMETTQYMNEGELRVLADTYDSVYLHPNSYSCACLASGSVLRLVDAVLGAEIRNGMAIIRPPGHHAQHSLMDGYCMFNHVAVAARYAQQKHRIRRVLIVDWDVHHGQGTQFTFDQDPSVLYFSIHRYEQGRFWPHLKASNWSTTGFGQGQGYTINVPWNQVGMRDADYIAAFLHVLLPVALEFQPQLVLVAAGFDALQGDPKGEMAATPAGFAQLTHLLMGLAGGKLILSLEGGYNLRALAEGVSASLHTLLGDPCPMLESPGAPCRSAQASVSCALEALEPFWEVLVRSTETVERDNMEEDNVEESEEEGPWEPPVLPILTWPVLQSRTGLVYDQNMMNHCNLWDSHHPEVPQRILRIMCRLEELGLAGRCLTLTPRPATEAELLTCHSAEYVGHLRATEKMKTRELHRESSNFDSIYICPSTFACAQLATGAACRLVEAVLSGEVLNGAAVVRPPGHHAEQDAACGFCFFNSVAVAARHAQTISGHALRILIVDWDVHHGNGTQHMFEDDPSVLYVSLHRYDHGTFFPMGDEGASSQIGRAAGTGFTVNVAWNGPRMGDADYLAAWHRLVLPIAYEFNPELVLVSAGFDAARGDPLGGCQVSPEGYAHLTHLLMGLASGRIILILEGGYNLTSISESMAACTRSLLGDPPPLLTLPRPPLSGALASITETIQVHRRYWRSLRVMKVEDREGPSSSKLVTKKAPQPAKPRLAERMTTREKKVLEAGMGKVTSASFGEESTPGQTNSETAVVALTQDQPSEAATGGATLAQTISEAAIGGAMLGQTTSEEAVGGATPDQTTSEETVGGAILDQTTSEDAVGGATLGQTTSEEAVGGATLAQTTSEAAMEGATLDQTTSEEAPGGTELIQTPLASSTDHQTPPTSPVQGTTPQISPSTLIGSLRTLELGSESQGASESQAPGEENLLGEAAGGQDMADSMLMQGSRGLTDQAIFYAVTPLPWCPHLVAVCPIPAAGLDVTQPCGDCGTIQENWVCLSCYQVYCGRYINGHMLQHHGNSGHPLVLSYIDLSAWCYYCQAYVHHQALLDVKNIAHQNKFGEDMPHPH
Protocol: as §1, §2, §3, §4

Compound	pIC50 [1]	pIC50 [2]
O=C(NO)c1ccc2c(c1)C[C@@]1(CC2)CCN(Cc2ccc(Cl)cc2)C1=O [Compound I-37, (S)-1′-(4-chlorobenzyl)-N-hydroxy-2′-oxo-3,4-dihydro-1H-spiro[naphthalene-2,3′-pyrrolidine]-7-carboxamide]	≥ 7.00	≥ 7.00
O=C(NO)c1ccc2c(c1)C[C@]1(CC2)CCN(c2ccccn2)C1=O [Compound I-43, (R)—N-hydroxy-2′-oxo-1′-(pyridin-2-yl)-3,4-dihydro-1H-spiro[naphthalene-2,3′-pyrrolidine]-7-carboxamide]	< 6.30	≥ 7.00
O=C(NO)c1ccc2c(c1)C[C@@]1(CC2)CCN(c2ccccn2)C1=O [Compound I-44, (S)—N-hydroxy-2′-oxo-1′-(pyridin-2-yl)-3,4-dihydro-1H-spiro[naphthalene-2,3′-pyrrolidine]-7-carboxamide]	< 6.30	≥ 7.00
COCCn1c(CN2CC[C@@]3(CCc4ccc(C(=O)NO)cc4C3)C2=O)nc2ccccc21 [Compound I-45, (S)—N-hydroxy-1′-((1-(2-methoxyethyl)-1H-benzo[d]imidazol-2-yl)methyl)-2′-oxo-3,4-dihydro-1H-spiro[naphthalene-2,3′-pyrrolidine]-7-carboxamide]	< 6.30	≥ 7.00
COCCn1c(CN2CC[C@]3(CCc4ccc(C(=O)NO)cc4C3)C2=O)nc2ccccc21 [Compound I-46, (R)—N-hydroxy-1′-((1-(2-methoxyethyl)-1H-benzo[d]imidazol-2-yl)methyl)-2′-oxo-3,4-dihydro-1H-spiro[naphthalene-2,3′-pyrrolidine]-7-carboxamide]	6.30 to 7.00	≥ 7.00
O=C(NO)c1ccc2c(c1)C[C@]1(CCNC1=O)CC2 [Compound I-47, (S)—N-hydroxy-2′-oxo-3,4-dihydro-1H-spiro[naphthalene-2,3′-pyrrolidine]-7-carboxamide]	< 6.30	≥ 7.00
O=C(NO)c1ccc2c(c1)C[C@@]1(CCNC1=O)CC2 [Compound I-48, (R)—N-hydroxy-2′-oxo-3,4-dihydro-1H-spiro[naphthalene-2,3′-pyrrolidine]-7-carboxamide]	< 6.30	≥ 7.00
CS(=O)(=O)c1ccc(CN2CC[C@]3(CCc4ccc(C(=O)NO)cc4C3)C2=O)cc1 [Compound I-51, (R)—N-hydroxy-1′-(4-(methylsulfonyl)benzyl)-2′-oxo-3,4-dihydro-1H-spiro[naphthalene-2,3′-pyrrolidine]-7-carboxamide]	≥ 7.00	≥ 7.00

Other lines, results leading:

pIC50 [1]	pIC50 [2]	Compound
< 6.30	≥ 7.00	O=C(NO)c1ccc2c(c1)C[C@]1(CC2)CCN(Cc2ccc(Cl)cc2)C1=O [Compound I-38, (R)-1′-(4-chlorobenzyl)-N-hydroxy-2′-oxo-3,4-dihydro-1H-spiro[naphthalene-2,3′-pyrrolidine]-7-carboxamide]
< 6.30	≥ 7.00	O=C(NO)c1ccc2c(c1)C[C@@]1(CC2)CCN(Cc2ccc(Cl)cn2)C1=O [Compound I-39, (S)-1′-((5-chloropyridin-2-yl)methyl)-N-hydroxy-2′-oxo-3,4-dihydro-1H-spiro[naphthalene-2,3′-pyrrolidine]-7-carboxamide]
≥ 7.00	≥ 7.00	O=C(NO)c1ccc2c(c1)C[C@]1(CC2)CCN(Cc2ccc(Cl)cn2)C1=O [Compound I-40, (R)-1′-((5-chloropyridin-2-yl)methyl)-N-hydroxy-2′-oxo-3,4-dihydro-1H-spiro[naphthalene-2,3′-pyrrolidine]-7-carboxamide]
< 6.30	≥ 7.00	O=C(NO)c1ccc2c(c1)C[C@@]1(CC2)CCN(Cc2ccc(F)cc2)C1=O [Compound I-41, (S)-1′-(4-fluorobenzyl)-N-hydroxy-2′-oxo-3,4-dihydro-1H-spiro[naphthalene-2,3′-pyrrolidine]-7-carboxamide]
≥ 7.00	≥ 7.00	O=C(NO)c1ccc2c(c1)C[C@]1(CC2)CCN(Cc2ccc(F)cc2)C1=O [Compound I-42, (R)-1′-(4-fluorobenzyl)-N-hydroxy-2′-oxo-3,4-dihydro-1H-spiro[naphthalene-2,3′-pyrrolidine]-7-carboxamide]
< 6.30	≥ 7.00	O=C(NO)c1ccc2c(c1)C[C@@]1(CC2)CCN(Cc2cnc(Cl)s2)C1=O [Compound I-49, (S)-1′-((2-chlorothiazol-5-yl)methyl)-N-hydroxy-2′-oxo-3,4-dihydro-1H-spiro[naphthalene-2,3′-pyrrolidine]-7-carboxamide]
< 6.30	≥ 7.00	O=C(NO)c1ccc2c(c1)C[C@@]1(CC2)CCN(Cc2cnc(O)s2)C1=O [Compound I-50, (S)—N-hydroxy-1′-((2-hydroxythiazol-5-yl)methyl)-2′-oxo-3,4-dihydro-1H-spiro[naphthalene-2,3′-pyrrolidine]-7-carboxamide]
< 6.30	≥ 7.00	CCCN1CC[C@@]2(CCc3ccc(C(=O)NO)cc3C2)C1=O [Compound I-52, (S)—N-hydroxy-2′-oxo-1′-propyl-3,4-dihydro-1H-spiro[naphthalene-2,3′-pyrrolidine]-7-carboxamide]
< 6.30	≥ 7.00	O=C(NO)c1ccc2c(c1)C[C@@]1(CC2)CCN(CC2CCC2)C1=O [Compound I-53, (S)-1′-(cyclobutylmethyl)-N-hydroxy-2′-oxo-3,4-dihydro-1H-spiro[naphthalene-2,3′-pyrrolidine]-7-carboxamide]
< 6.30	≥ 7.00	CC(C)CCN1CC[C@@]2(CCc3ccc(C(=O)NO)cc3C2)C1=O [Compound I-54, (S)—N-hydroxy-1′-isopentyl-2′-oxo-3,4-dihydro-1H-spiro[naphthalene-2,3′-pyrrolidine]-7-carboxamide]
< 6.30	≥ 7.00	CC#CCN1CC[C@@]2(CCc3ccc(C(=O)NO)cc3C2)C1=O [Compound I-55, (S)-1′-(but-2-yn-1-yl)-N-hydroxy-2′-oxo-3,4-dihydro-1H-spiro[naphthalene-2,3′-pyrrolidine]-7-carboxamide]
